The test system of one assay is Staphylococcus. Nature of the assay: Antibacterial activity against Staphylococcus aureus. The class given is functional.
Assay [1] is described as follows: Inhibition of Trypanosoma brucei Leucyl-tRNA synthetase.
The next assay deals with Trypanosoma brucei. Kind of assay: Antitrypanosomal activity against Trypanosoma brucei assessed as growth inhibition. The class given is functional, organism-based.
Assay [2] relates to Staphylococcus epidermidis. Kind of assay: Antibacterial activity against Staphylococcus epidermidis. The class given is functional.
A short description of assay [3]: Inhibition of Staphylococcus aureus Methionyl-tRNA synthetase.
Assay [4] has as its system Staphylococcus aureus. Nature of the assay: Antibacterial activity against mupirocin or oxacillin-resistant Staphylococcus aureus. In kind it is functional.
The nature of assay [5]: Inhibition of Escherichia coli Methionyl-tRNA synthetase.
A further assay concerns Streptococcus pyogenes. Kind of assay: Antibacterial activity against Streptococcus pyogenes. In kind it is functional.
The next assay deals with Escherichia coli. Kind of assay: Antibacterial activity against Escherichia coli. In kind it is functional.
In assay [6] the test system is Staphylococcus aureus. Kind of assay: Antibacterial activity against methicillin-resistant Staphylococcus aureus. The class given is functional.
The target in the next assay is Isoleucine--tRNA ligase (Escherichia coli K-12, UniProt P00956). Nature of the assay: Competitive inhibition of Escherichia coli Isoleucyl-tRNA synthetase.

From ChEMBL document CHEMBL1914365, “Aminoacyl-tRNA synthetase inhibitors as potential antibiotics” (Eur J Med Chem, 2011) come the findings set out here.

Each structure is given as a SMILES string. Converted amounts (≈) assume the structure as drawn.

Chain of Isoleucine--tRNA ligase (P00956 whole entry): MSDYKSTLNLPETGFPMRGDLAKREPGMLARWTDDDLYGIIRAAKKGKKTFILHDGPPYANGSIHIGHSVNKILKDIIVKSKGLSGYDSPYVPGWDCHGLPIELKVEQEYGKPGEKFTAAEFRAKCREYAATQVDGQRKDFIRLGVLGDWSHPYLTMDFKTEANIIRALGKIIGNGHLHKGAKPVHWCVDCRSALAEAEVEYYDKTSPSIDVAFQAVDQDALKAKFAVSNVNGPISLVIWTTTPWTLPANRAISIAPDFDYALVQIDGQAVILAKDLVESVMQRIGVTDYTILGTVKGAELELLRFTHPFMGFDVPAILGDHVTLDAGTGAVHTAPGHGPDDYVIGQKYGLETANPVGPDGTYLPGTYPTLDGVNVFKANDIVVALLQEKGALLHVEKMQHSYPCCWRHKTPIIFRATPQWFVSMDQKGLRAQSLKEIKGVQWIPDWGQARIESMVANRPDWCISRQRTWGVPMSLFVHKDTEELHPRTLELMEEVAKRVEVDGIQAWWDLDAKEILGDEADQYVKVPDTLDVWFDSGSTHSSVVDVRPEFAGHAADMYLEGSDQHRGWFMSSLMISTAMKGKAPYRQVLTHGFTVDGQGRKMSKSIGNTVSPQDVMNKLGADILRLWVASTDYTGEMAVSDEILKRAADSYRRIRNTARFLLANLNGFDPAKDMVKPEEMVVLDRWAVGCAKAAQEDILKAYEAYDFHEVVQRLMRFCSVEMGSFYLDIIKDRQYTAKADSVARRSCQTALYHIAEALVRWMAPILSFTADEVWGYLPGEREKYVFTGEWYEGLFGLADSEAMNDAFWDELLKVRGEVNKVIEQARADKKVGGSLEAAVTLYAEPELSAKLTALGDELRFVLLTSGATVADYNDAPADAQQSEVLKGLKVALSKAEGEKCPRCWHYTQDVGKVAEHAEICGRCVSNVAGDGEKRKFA

`O=C1OCC(NNc2ccc([N+](=O)[O-])cc2)=C1c1ccc(Br)cc1` yielded an MIC50 in the assay with Staphylococcus of 0.42 µg/mL (≈ 1.08 µM).

Turning to `CCOC(=O)COc1ccc2c(c1)B(O)OC2`, the IC50 in assay [1] is 1600 nM.

For `CC(=O)C(C)(C)Oc1ccc2c(c1)B(O)OC2`, in the assay with Trypanosoma brucei, the EC50 turned out to be 370 nM.

Compound `CC(C)C[C@H](NC(=O)[C@H](CC(C)C)N1C[C@@H](CNC(=O)Nc2ccccc2)NC1=O)C(=O)O` came in with an MIC50 in assay [2] of 6.25 µM (≈ 2.88 µg/mL).

`CC(C)C[C@H](NC(=O)[C@H](CC(C)C)N1C[C@@H](CNC(=O)Nc2ncccn2)NC1=O)C(=O)O` registered an MIC50 in assay [2] of 25 µM (≈ 11.6 µg/mL).

Compound `CC(C)C[C@H](NC(=O)[C@H](CC(C)C)N1C[C@@H](CNS(=O)(=O)c2ccccc2)NC1=O)C(=O)O` registered an MIC50 in assay [2] of 100 µM (≈ 48.3 µg/mL).

Regarding `C=C(F)c1sc(CNCCCNc2cc(=O)c3ccccc3[nH]2)c(C)c1Br` [BEDEROCIN], the Ki turned out to be 0.01 nM in assay [3] and 300 nM in assay [5]. This compound registered an MIC90 against Staphylococcus aureus [4] of 0.5 µg/mL (≈ 1.11 µM). This compound displayed an MIC in the assay with Streptococcus pyogenes of 0.03 µg/mL (≈ 0.0666 µM).

Regarding `C/C(=C\C(=O)OCCCCCCCCC(=O)O)C[C@@H]1OC[C@H](C[C@@H]2O[C@H]2[C@@H](C)[C@H](C)O)[C@@H](O)[C@H]1O` [MUPIROCIN], the results for the MIC in the assay on Escherichia coli and in the assay with Staphylococcus aureus [6] were 128 µg/mL (≈ 256 µM) and 0.25 µg/mL (≈ 0.499 µM), respectively. Besides, the affinity at Isoleucine--tRNA ligase, expressed as Ki, was 2.5 nM.

The MIC50 is an inhibitory concentration at the 50% level, which refers to growth in some studies and to a panel of isolates in others. Lower therefore signals higher susceptibility. Broadly, the IC50 is the point on the concentration scale where inhibition reaches its midpoint. A word on the EC50: it is the concentration at which the effect is half-maximal. One may read the Ki as a measure of affinity in units of concentration, obtained from inhibition or displacement. What is called MIC90 is an inhibitory concentration at the 90% level, which refers to growth in some studies and to a panel of isolates in others. A low value points to greater potency. What is called MIC is the smallest concentration in the dilution series that meets the test's criterion for growth inhibition. A high value points to weaker potency.
